PubChem BioAssay AID1963827 (Molecular Pharmacology Branch, DTP, NCI, 2024)

Tested on: 994946-033-R-J1-PDC complex spheroid viability
Assay: Anticancer human tumor 994946-033-R-J1-PDC patient-derived melanoma cell line growth inhibition [POLQ]
Settings: for IC50: curve of first compound; for viability, T/C: stronger effect = lower value
Procedure: Multicellular complex tumor spheroid response to Polymerase (POL) inhibitors (novobiocin, ART-558, RP6685) in combination with a variety of drugs and investigational agents in selected tumor cell lines
The POL inhibitors (novobiocin, ART-558, and RP6685) were evaluated both individually and in combination with standard of care and investigational anticancer small molecules within a complex spheroid model of solid tumors. . Complex spheroids include a stromal component modeled by human endothelial cells (HUVEC) and fibroblasts modeled by human mesenchymal stem cells (MSCs). The concentration ranges selected for each drug and investigational agent were based upon clinically achievable concentrations if the clinical Cmax of the agent was known.
Compounds. The drugs and investigational agents: novobiocin (NSC847541), ART-558 (NSC835418), RP-6685 (NSC848927), peposertib (NSC802822), ceralasertib (NSC780249), elimusertib (NSC800525), camonsertib (NSC841442), AZD-1390 (NSC803789), olaparib (NSC753686), talazoparib (NSC767125), rucaparib (NSC756644), sotorasib (NSC818433), MRTX-1133 (NSC836407), SN-38 (NSC673596), topotecan (NSC609699), epotoside (NSC141540), doxorubicin (NSC123127), gemcitabine (NSC613327), 5-fluorouracil (NSC19893), paclitaxel (NSC125973), vemurafenib (NSC761431), MSA-2 (NSC828583), SN-011 (NSC837082), adavosertib (NSC754352), prexasertib (NSC758257), carboplatin (NSC241240) and oxaliplatin (NSC266046), were obtained from the National Cancer Institute (NCI) Developmental Therapeutics Program Chemical Repository (21). The FDA-approved anticancer drug set is available from the Developmental Therapeutics Program at https://dtp.cancer.gov/organization/dscb/obtaining/. […] The stock solutions were prepared in dimethyl sulfoxide (DMSO, Sigma-Aldrich, St. Louis, MO, cat. D2650), except for the platinum compounds which were prepared in saline (Quality Biological, Gaithersburg, MD, cat. 114-055-101), at 800-fold the tested concentration and stored at -70 degrees C prior to their use. All drugs and investigational agents were tested over a range starting from a high concentration at or near the clinical Cmax and decreasing in half-log increments. If the clinical Cmax for an agent had not been determined, the highest concentration tested was 10 microM, except for SN-38, which was tested at a high concentration of 1 microM.
Cell Culture. All cells were maintained in an incubator at 37 degrees C and 5% CO2 with 95% humidity. The PDC lines were cultured according to standard operating procedures established by the NCI PDMR (https://pdmr.cancer.gov). Table 3 of the manuscript, lists the cell lines along with the number of the three cell types plated to form the mct-spheroids and media for tumor cell growth. After thawing, all PDC lines, except 997537-175-T-J1-PDC and 415267-285-R-J2-PDC, were cultured in Matrigel-coated flasks prepared with a working solution of 1X Ham's F-12 nutrient mix, without supplementation (Thermo Fisher Scientific, cat. 11765054), 100 U/mL penicillin-streptomycin (Thermo Fisher Scientific, cat. 15140122), and 2.5% Matrigel (Corning Inc., Corning, NY, cat. 354248) for the first three passages. The two PDC lines 997537-175-T-J1-PDC and 415267-285-R-J2-PDC were cultured on uncoated flasks. The 857933-349-R-J2-PDC line was cultured in 6C/Colon 1B media containing advanced DMEM/F-12 (Thermo Fisher Scientific, cat. 12634028), 10 mM HEPES (Thermo Fisher Scientific, cat. 15630080), 1X GlutaMAX supplement (Thermo Fisher Scientific, cat. 35050061), 0.1 mg/mL primocin (InvivoGen, San Diego, CA, cat. ant-pm-2), 10% defined fetal bovine serum, heat inactivated (HyClone Laboratories Inc., Logan, UT, cat. SH30070.03HI), 50% L-WRN conditioned media (ATCC, cat. CRL-3276), 1.25 mM N-Acetyl-L-cysteine (Sigma-Aldrich, cat. A9165), 10 mM nicotinamide (Sigma-Aldrich, cat. N0636), 1X B-27 supplement (Thermo Fisher Scientific, cat. 17504044), 1X N-2 supplement (Thermo Fisher Scientific, cat. […]

[1] = second compound 0.0316 µM, first compound 0.00316 µM
[2] = second compound 0.0316 µM, first compound 0.01 µM
[3] = second compound 0.0316 µM, first compound 0.0316 µM
[4] = second compound 0.0316 µM, first compound 0.1 µM
[5] = second compound 0.1 µM, first compound 0.00316 µM
[6] = second compound 0.1 µM, first compound 0.01 µM
[7] = second compound 0.1 µM, first compound 0.0316 µM
[8] = second compound 0.1 µM, first compound 0.1 µM
[9] = second compound 0.316 µM, first compound 0.00316 µM
[10] = second compound 0.316 µM, first compound 0.01 µM
[11] = second compound 0.316 µM, first compound 0.0316 µM
[12] = second compound 0.316 µM, first compound 0.1 µM
[13] = second compound 1 µM, first compound 0.00316 µM
[14] = second compound 1 µM, first compound 0.01 µM
[15] = second compound 1 µM, first compound 0.0316 µM
[16] = second compound 1 µM, first compound 0.1 µM
[17] = second compound 3.16 µM, first compound 0.00316 µM
[18] = second compound 3.16 µM, first compound 0.01 µM
[19] = second compound 3.16 µM, first compound 0.0316 µM
[20] = second compound 3.16 µM, first compound 0.1 µM
[21] = second compound 10 µM, first compound 0.00316 µM
[22] = second compound 10 µM, first compound 0.01 µM
[23] = second compound 10 µM, first compound 0.0316 µM
[24] = second compound 10 µM, first compound 0.1 µM
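Further: spheroids exposed to drugs for 7 days.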
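Wherever viability, T/C is given: 100% = DMSO vehicle treated spheroids.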

Cn1ncnc1[C@H]1c2n[nH]c(=O)c3cc(F)cc(c23)N[C@@H]1c1ccc(F)cc1 + COC1C(OC(N)=O)C(O)C(Oc2ccc3c(O)c(NC(=O)c4ccc(O)c(CC=C(C)C)c4)c(=O)oc3c2C)OC1(C)C
IC50 (second compound 0.0316 µM): > 100 nM
IC50 (second compound 0.1 µM): > 100 nM
IC50 (second compound 0.316 µM): > 100 nM
IC50 (second compound 1 µM): > 100 nM
IC50 (second compound 3.16 µM): > 100 nM
IC50 (second compound 10 µM): > 100 nM
viability, T/C (second compound 0.0316 µM, first compound 0.000316 µM): 92.5%
viability, T/C (second compound 0.0316 µM, first compound 0.001 µM): 96.1%
viability, T/C [1]: 123%
viability, T/C [2]: 93.6%
viability, T/C [3]: 71.5%
viability, T/C [4]: 63.2%
viability, T/C (second compound 0.1 µM, first compound 0.000316 µM): 97.7%
viability, T/C (second compound 0.1 µM, first compound 0.001 µM): 81.9%
viability, T/C [5]: 93.4%
viability, T/C [6]: 94.6%
viability, T/C [7]: 72.8%
viability, T/C [8]: 55.6%
viability, T/C (second compound 0.316 µM, first compound 0.000316 µM): 93.7%
viability, T/C (second compound 0.316 µM, first compound 0.001 µM): 101%
viability, T/C [9]: 93.3%
viability, T/C [10]: 76.6%
viability, T/C [11]: 66.3%
viability, T/C [12]: 77.7%
viability, T/C (second compound 1 µM, first compound 0.000316 µM): 91.4%
viability, T/C (second compound 1 µM, first compound 0.001 µM): 103%
viability, T/C [13]: 104%
viability, T/C [14]: 106%
viability, T/C [15]: 59.9%
viability, T/C [16]: 66.4%
viability, T/C (second compound 3.16 µM, first compound 0.000316 µM): 106%
viability, T/C (second compound 3.16 µM, first compound 0.001 µM): 81.2%
viability, T/C [17]: 117%
viability, T/C [18]: 82.3%
viability, T/C [19]: 70.4%
viability, T/C [20]: 65.2%
viability, T/C (second compound 10 µM, first compound 0.000316 µM): 89.5%
viability, T/C (second compound 10 µM, first compound 0.001 µM): 102%
viability, T/C [21]: 110%
viability, T/C [22]: 79.5%
viability, T/C [23]: 78.4%
viability, T/C [24]: 71.8%

COc1cccc(OCCCN)c1-c1cc(Nc2cnc(C#N)cn2)n[nH]1 + Nc1ccc(C#CCN(C(=O)Cc2ncc(C(F)(F)F)cc2C(F)(F)F)c2ccc(F)cc2)nn1
IC50 (second compound 0.0316 µM): 25 nM
IC50 (second compound 0.1 µM): 23.5 nM
IC50 (second compound 0.316 µM): 17.1 nM
IC50 (second compound 1 µM): 16.1 nM
IC50 (second compound 3.16 µM): 23.7 nM
IC50 (second compound 10 µM): 19.7 nM
viability, T/C [1]: 71%
viability, T/C [2]: 66.9%
viability, T/C [3]: 34.4%
viability, T/C [4]: 49%
viability, T/C (second compound 0.0316 µM, first compound 0.316 µM): 14.3%
viability, T/C (second compound 0.0316 µM, first compound 1 µM): 17.4%
viability, T/C [5]: 86.9%
viability, T/C [6]: 69.2%
viability, T/C [7]: 38.4%
viability, T/C [8]: 39.4%
viability, T/C (second compound 0.1 µM, first compound 0.316 µM): 25%
viability, T/C (second compound 0.1 µM, first compound 1 µM): 24.3%
viability, T/C [9]: 92.2%
viability, T/C [10]: 66.1%
viability, T/C [11]: 31.9%
viability, T/C [12]: 19.9%
viability, T/C (second compound 0.316 µM, first compound 0.316 µM): 25.6%
viability, T/C (second compound 0.316 µM, first compound 1 µM): 15.7%
viability, T/C [13]: 80.1%
viability, T/C [14]: 60.7%
viability, T/C [15]: 34.6%
viability, T/C [16]: 24.4%
viability, T/C (second compound 1 µM, first compound 0.316 µM): 17.6%
viability, T/C (second compound 1 µM, first compound 1 µM): 19%
viability, T/C [17]: 94.6%
viability, T/C [18]: 66.6%
viability, T/C [19]: 47.5%
viability, T/C [20]: 24.2%
viability, T/C (second compound 3.16 µM, first compound 0.316 µM): 28.7%
viability, T/C (second compound 3.16 µM, first compound 1 µM): 19.9%
viability, T/C [21]: 100%
viability, T/C [22]: 64.5%
viability, T/C [23]: 30.5%
viability, T/C [24]: 44.3%
viability, T/C (second compound 10 µM, first compound 0.316 µM): 30.3%
viability, T/C (second compound 10 µM, first compound 1 µM): 19.1%
